Assay results: US20230072790A1, “COMPOUNDS AND FORMULATIONS FOR PROTECTIVE COATINGS” (Apeel Technology, Inc., priority 2021, published 2023)

Key:
unwaxed pixie oranges = assay: Mass loss factor of coated unwaxed pixie oranges (Example 13); assay type: in vivo, orange; conditions: 2 g/L sorbitan monolaurate added to 50 g/L 95/5 monostearate/sodium stearate, bowl dip, 70° C.
Method: (§1) As used herein, the term “mass loss factor” is defined as the ratio of the average mass loss rate of uncoated produce (measured for a control group) to the average mass loss rate of the corresponding tested produce (e.g., coated produce) over a given time.
FIG. 21 is a graph showing mass loss factors for unwaxed pixie oranges (“pixies”). One group of pixies was not treated. A second group of pixies was treated with 50 g/L of Treatment C. A third group of pixies was treated with 50 g/L of Treatment C and 2 g/L of a wetting agent (WAG). A fourth group of pixies was treated with 50 g/L of a 95/5 mixture of monostearate/sodium stearate and 2 g/L sorbitan monolaurate. The coatings were applied using a bowl dip method and were dried at a temperature of 70° C. […] The pixies were mostly dry (~80%) coming out of the heat tunnel.

[1] = X-ray scattering of thin-film coatings (Example 10); assay type: physicochemical; conditions: 95 wt% sorbitan ester / 5 wt% sodium stearate; film cast from 30 g/L aqueous solution, dried 40° C. 4 hours
Excerpt: As used herein, “lamellar structure” refers to a structure comprising lamella(e) vertically stacked adjacent to each other and held together by intermolecular forces. As used herein, “lamella(e)” refers to one lamella or two or more lamellae, that is, one or more discrete layers of molecules, respectively. In some embodiments, the molecules present in the lamella(e) are ordered (e.g., aligned, as in an open bilayer). The distance between a surface of a lamella and a surface of an adjacent lamella that is facing the same direction is referred to herein as “interlayer spacing” or “periodic spacing”. Interlayer spacing between two lamellae is determined by (1) obtaining an out-of-plane X-ray scattering image of a coating, (2) determining the scattering vector (q) of the peak corresponding to the lamellar structure, and (3) using Bragg’s equation below, determine the interlayer spacing (d).
Coating agents were applied to the surface of a plastic substrate, which acts as a hydrophilic surface when exposed to air. An X-ray scattering image of the applied coat was obtained to identify characteristics of the coating.
Specifically, a coating agent of sorbitan monostearate (95 wt%) and sodium stearate (5 wt%) was applied to a substrate as a thin-film. The films were drop cast from a 30 g/L aqueous solution and dried at 40° C. for 4 hours. […] “LAM” refers to lamellar or bilayer morphology. […]

California avocados = assay: Respiration factor of coated California avocados (Example 11); assay type: in vivo, avocado; conditions: 30 g/L sorbitan ester
Excerpt: (§2) As used herein, the term “respiration rate” refers to the rate at which the product releases gas, such as CO2. This rate can be determined from the volume of gas (e.g., CO2) (at standard temperature and pressure) released per unit time per unit weight of the product. The respiration rate can be expressed as ml gas/kg·hour. The respiration rate of the product can be measured by placing the product in a closed container of known volume that is equipped with a sensor, such as a CO2 sensor, recording the gas concentration within the container as a function of time, and then calculating the rate of gas release required to obtain the measured concentration values.
(§3) As used herein, the term “respiration factor” is defined as the ratio of the average gas diffusion (e.g., CO2 release) of uncoated produce (measured for a control group) to the average gas diffusion of the corresponding tested produce (e.g., coated produce) over a given time.
FIG. 17 is a graph showing mass loss factors for California avocados. The Untreated group of avocadoes was not treated. A second group of avocados was treated with 15 g/L of Treatment C. A third group of avocados was treated with 30 g/L of Treatment C. A fourth group of avocados was treated with 30 g/L sorbitan monopalmitate (MP) (100 wt%). A fifth group of avocados was treated with a 30 g/L sorbitan monostearate (MS). […]

Mexican avocados [2] = assay: Mass loss factor of coated Mexican avocados (Example 12); assay type: in vivo, avocado; conditions: brush bed, dried 70° C., sorbitan monostearate as 94 wt% with 6 wt% sodium stearate
Method: as §1
FIG. 19 is a graph showing mass loss factors (MLF) for Mexican avocados. A first group of avocados was not treated. A second group of avocados was treated with 20 g/L of Treatment C. A third group of avocados was treated with 40 g/L of Treatment C. The monoglyceride coatings were mixed with a high shear mixer. A fourth group of avocados was treated with 20 g/L of a mixture of sorbitan monostearate (94 wt%) and sodium stearate (6 wt%). A fifth group of avocados was treated with 40 g/L of a mixture of sorbitan monostearate (94 wt%) and sodium stearate (6 wt%). The sorbitan monostearate coatings were mixed with blenders. The coatings were applied using a brush bed and were dried at a temperature of 70° C. […] The MLF of 20 g/L of […] monostearate/sodium stearate was 1.49 and the MLF of the 40 g/L 95/5 monostearate/sodium stearate was 2.24.

Mexican avocados [3] = assay: Respiration factor of coated Mexican avocados (Example 12); assay type: in vivo, avocado; conditions: day 1
Excerpt: as §2, §3
FIG. 19 is a graph showing mass loss factors (MLF) for Mexican avocados. A first group of avocados was not treated. A second group of avocados was treated with 20 g/L of Treatment C. A third group of avocados was treated with 40 g/L of Treatment C. The monoglyceride coatings were mixed with a high shear mixer. A fourth group of avocados was treated with 20 g/L of a mixture of sorbitan monostearate (94 wt%) and sodium stearate (6 wt%). […]

Substance | mass loss factor increase compared to the untreated substrates (unwaxed pixie oranges) [times] | periodicity of alternating bilayers [1] [nm] | respiration factor compared with 95/5 monostearate/sodium stearate at 30 g/L (California avocados) | MLF (mass loss factor) (Mexican avocados [2]; 20 g/L) | MLF (mass loss factor) (Mexican avocados [2]; 40 g/L) | RF (respiration factor) (Mexican avocados [3]; 20 g/L) | RF (respiration factor) (Mexican avocados [3]; 40 g/L)
sorbitan monolaurate | 3.56 | – | – | – | – | – | –
sorbitan monopalmitate | – | 5.6 | higher | – | – | – | –
sorbitan monostearate | – | 5.5 | comparable | 1.83 | 2.32 | 1.15 | 1.25
